Where a SMILES comes first, the peptide text is derived from it. Bridges are numbered along the chain shown (N, C = ends). [ ]: non-standard residue; d: D form. The star is where a group is joined. 5FAM = O=C1OC2(c3ccc(O)cc3Oc3cc(O)ccc32)c2ccc(C(=O)*)cc21; S5 = C=CCCC[C@](C)(N)C(=O)O; Dap = NC[C@H](N)C(=O)O; BrAc = O=C(CBr)*; βAla = NCCC(=O)O Where only a bound is given, the exact number is not on record here.

A short description of data set [1]: Off-target reactivity with DTT. The data set is classed as physicochemical. To be noted: DTT 1 mM.
Data set [2] can be described thus: Glutathione reactivity assay (HPLC time course). As to conditions: 100 μM peptide, glutathione 10 equiv (1 mM), 50 mM Tris, 200 mM NaCl, 1% DMSO, 37 °C; HPLC 280 nm, GSH adduct peak area; n = 3. As to the method: To evaluate the reactivity toward off-target thiols, the acrylamide, bromoacetamide, and chloroacetamide covalent peptides were exposed to glutathione (10 equiv) in an HPLC time course assay over 96 h (Figure 4A). Here, a set of nonfluorescent peptides (2b, 3b, and 4b) were synthesized with an N-terminal tryptophan for quantification through absorbance measurements. Glutathione is the most abundant thiol in human cells,[40] and time point measurements were obtained by quenching reactions with cold acetonitrile containing TFA (0.1%) and 5-carboxyfluorescein as an internal standard.
Covalent peptides (100 μM) were diluted from 10 mM DMSO stock solutions (1% final DMSO content) and incubated in buffer (500 μL total volume; 50 mM Tris, 200 mM NaCl) with glutathione (10 equiv, 1 mM) at 37 °C. To quench the reaction, 10 μL of the reaction mixture was added to 100 μL of cold acetonitrile containing 0.1% TFA [v/v] and 10 μM fluorescein, included as an internal standard. Reaction mixtures were first analyzed by LCMS after 1 h of incubation to assign the glutathione adduct peak by comparison to mixtures quenched immediately following peptide addition. […] The AUC of the reacted covalent peptide was normalized to the AUC of the fluorescein standard. These values were plotted and fitted with nonlinear regression using GraphPad Prism software.

In data set [3] the target is T1, GST-E6 (GST-tagged HPV16 E6 protein) (Human papillomavirus type 16, UniProt P03126).
T1 construct: host or cells: E. coli BL21
Put plainly: Noncompetitive fluorescence polarization (FP) binding assay. Details: species or system Human Papillomavirus (HPV-16). As to the method:
An N-terminal carboxyfluorescein was included for FP analysis of binding affinity for both the natural backbone and the stapled peptides.
For noncompetitive FP experiments, varying concentrations of GST-E6 protein (38 μM; 10 point 2-fold serial dilution) were incubated with 30 nM fluorescently labeled peptides in buffer (10 μL total volume; 50 mM Tris, 200 mM NaCl, 1 mM DTT, 0.1% [v/v] Trition X-100) in black 384-well plates. For competitive FP experiments, 100 nM GST-E6 was incubated with 30 nM fluorescently labeled noncovalent peptide and varying concentrations (20 μM; 3-fold serial dilution) of covalent peptide in buffer (20 μL) with a final DMSO content of 0.5% [v/v]. Negative control (polarization reference; 30 nM fluorescent peptide, no protein) and blank reference (buffer alone) were included in triplicate for G-factor calibration. Sample plates were centrifuged (1 min, 500g) and incubated for 30 min at RT. Following incubation, FP at equilibrium was measured on a Tecan M1000 microplate reader (ex = 470 nm, em = 525; gain optimized, 200 flashes, 300 ms settle time, G-factor reference value 30 mP). Measured polarizations were fitted to a sigmoidal dose–response curve using GraphPad Prism software to generate KD values.
On the technique in general: Polarisation of emitted light reports the rotation of a fluorescent probe.

In data set [4] the target is bovine α-chymotrypsin (Bos taurus, UniProt P00766). The data set is described as follows: in vitro. As to conditions: 50 μM peptide, 50 nM bovine α-chymotrypsin, pH 7.5, room temp, 4 h; HPLC. On the procedure: (§1) Chymotrypsin was chosen due to its substrate selectivity for peptides containing hydrophobic side chains, including leucine, making the LxxLL motif a well-suited substrate for proteolytic cleavage by this protease.[54]
(§2) For each time point, a 50 μL aliquot was removed from the reaction mixture and quenched with 40 μL of 0.5% [v/v] trifluoroacetic acid in acetonitrile. Quenched samples were subsequently analyzed by analytical reverse-phase HPLC, and the remaining undigested peptide was quantified by integration of AUC. A plot of percent peptide remaining vs time was fit to a one-phase exponential decay to calculate half-life using GraphPad Prism software.

Data set [5] in a line: in vitro. To be noted: bovine α-chymotrypsin (50 nM), pH 7.5. On the procedure: as §1, §2
A short description of data set [6]: Circular dichroism spectroscopy, percent helicity. To be noted: 50 μM peptide, 10 mM phosphate buffer pH 7.2, 0.5% DMSO, 20 °C. The data set is classed as physicochemical. On the procedure: To determine the secondary structure of peptides 1–11, CD was measured in an aqueous solution. […] The molar ellipticity ([θ]) at 222 nm was used to estimate the percent helicity of peptides in aqueous solutions and enable direct comparison of the helical content of peptides 1–11 (Figure 5C).[51],[52]
CD measurements were acquired on an Olis DSM17 CD spectrophotometer. Cells with a path length of 2 mm were used. Peptide solutions at 50 μM were prepared in 10 mM phosphate buffer (500 μL; pH = 7.2) containing 0.5% of DMSO, and exact concentrations were determined using fluorescein absorbance at 494 nm and a molar extinction coefficient of 82,000 cm^–1 M^–1.[59] Blank solutions of buffer without peptide were prepared for background subtraction. Scans were performed at 20 °C from 200 to 260 nm with increments of 1 nm, bandwidth of 2 nm, and a 5 s integration time. […] Helical content for peptides was calculated using a previously described method[52] that assumes that the peptide population only exists in two states, helical and random coil, and that the ellipticity contribution from the random coil population is negligible at 222 nm. […] This was calculated via the equation [θobs]222 = 43,000(1 – [x/n]), where x is the factor accounting for end effects, for which 2.5 was used, and n is the number of residues.[52]
On the technique in general: CD spectra are sensitive to the conformation of chiral molecules.

T1 sequence (P03126 whole entry): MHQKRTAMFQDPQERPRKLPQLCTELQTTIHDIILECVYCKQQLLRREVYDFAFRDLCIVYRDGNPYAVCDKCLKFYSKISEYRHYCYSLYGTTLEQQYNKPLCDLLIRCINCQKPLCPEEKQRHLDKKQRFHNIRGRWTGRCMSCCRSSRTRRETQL

Consider `CC(=O)N[C@@H](Cc1c[nH]c2ccccc12)C(=O)NCCC(=O)N[C@@H](C)C(=O)N[C@@H](C)C(=O)N[C@@H](C)C(=O)N[C@@H](CCC(=O)O)C(=O)N[C@@H](CC(C)C)C(=O)N[C@H](C(=O)N[C@@H](CC(C)C)C(=O)N[C@@H](CCC(N)=O)C(=O)N[C@@H](CCC(=O)O)C(=O)N[C@@H](CC(C)C)C(=O)N[C@@H](CC(C)C)C(=O)N[C@@H](CNC(=O)CBr)C(N)=O)[C@@H](C)O` [3b] (Ac-W[βAla]AAAELTLQELL[Dap](BrAc)-NH2), for which the “half-life of off-target reaction with DTT” value in data set [1] worked out at 2.1 min. Moreover, in data set [2], the “t1/2 of reaction with glutathione” value is 8.5 min.

For the molecule `CC(C)C[C@H](NC(=O)[C@H](CC(C)C)NC(=O)[C@H](CCC(=O)O)NC(=O)[C@H](CCC(N)=O)NC(=O)[C@H](CC(C)C)NC(=O)[C@@H](NC(=O)[C@H](CC(C)C)NC(=O)[C@H](CCC(=O)O)NC(=O)[C@H](C)NC(=O)[C@H](C)NC(=O)[C@H](C)NC(=O)CCNC(=O)c1ccc2c(c1)C(=O)OC21c2ccc(O)cc2Oc2cc(O)ccc21)[C@@H](C)O)C(=O)NCC(N)=O` [compound 1] ({5FAM-βAla}-AAAELTLQELLG-NH2), in data set [3], the midpoint of the response, the EC50, lay at 2.59 µM and the dissociation constant (Kd) (usually a measure of binding affinity in units of concentration) was found to be 2.59 µM. Moreover, in data set [4], the “degradation by chymotrypsin within 4 h” value was “complete degradation”. Further, the half-life (in general, the time in which the quantity being followed falls by half) at 50 μM in data set [5] was found to be 47 min.

For the molecule `CC(C)C[C@H](NC(=O)[C@H](CC(C)C)NC(=O)[C@H](CCC(=O)O)NC(=O)[C@]1(C)CCCC=CCCC[C@](C)(NC(=O)[C@H](C)NC(=O)[C@H](C)NC(=O)[C@H](C)NC(=O)CCNC(=O)c2ccc3c(c2)C(=O)OC32c3ccc(O)cc3Oc3cc(O)ccc32)C(=O)N[C@@H](CC(C)C)C(=O)N[C@@H]([C@@H](C)O)C(=O)N[C@@H](CC(C)C)C(=O)N1)C(=O)NCC(N)=O` [compound 6] ({5FAM-βAla}-AAA[S5]LTL[S5]ELLG-NH2; staple 4-8), the “Percent helicity from molar ellipticity at 222 nm (CD)” value in data set [6] came out at 22%. The molecule further showed a Kd in data set [3] of at least 38 µM.

These data come from publication PMC11934087, “Rational Design of Stapled Covalent Peptide Modifiers of Oncoprotein E6 from Human Papillomavirus” (ACS Chemical Biology, 2025).
